Laboratory results: ChEMBL document CHEMBL1132739, “Pyrrolo[2,3-d]pyrimidines containing an extended 5-substituent as potent and selective inhibitors of lck I” (Bioorg Med Chem Lett, 2000)
One block for each compound: values may come before it.

Columns and labels:
[1] = target: T1, Tyrosine-protein kinase Lck (Homo sapiens, UniProt P06239)
Description: Inhibition of p56 Lck tyrosine kinase at 5 uM ATP

[2] = target: Vascular endothelial growth factor receptor 2 (Homo sapiens, UniProt P35968)
Description: Inhibition of Vascular endothelial growth factor receptor 2 at 5 uM ATP

[3] = target: Cyclin-dependent kinase 1/cyclin B (Homo sapiens, UniProt P06493); test: Inhibition of CDC2/CyB; format: protein-complex assay
Protein kinase C (PKC) = test: Inhibition of PKC; format: protein assay
[4] = target: T2, Tyrosine-protein kinase ZAP-70 (Homo sapiens, UniProt P43403); test: Inhibition of Zap 70
T2 sequence (P43403 whole entry): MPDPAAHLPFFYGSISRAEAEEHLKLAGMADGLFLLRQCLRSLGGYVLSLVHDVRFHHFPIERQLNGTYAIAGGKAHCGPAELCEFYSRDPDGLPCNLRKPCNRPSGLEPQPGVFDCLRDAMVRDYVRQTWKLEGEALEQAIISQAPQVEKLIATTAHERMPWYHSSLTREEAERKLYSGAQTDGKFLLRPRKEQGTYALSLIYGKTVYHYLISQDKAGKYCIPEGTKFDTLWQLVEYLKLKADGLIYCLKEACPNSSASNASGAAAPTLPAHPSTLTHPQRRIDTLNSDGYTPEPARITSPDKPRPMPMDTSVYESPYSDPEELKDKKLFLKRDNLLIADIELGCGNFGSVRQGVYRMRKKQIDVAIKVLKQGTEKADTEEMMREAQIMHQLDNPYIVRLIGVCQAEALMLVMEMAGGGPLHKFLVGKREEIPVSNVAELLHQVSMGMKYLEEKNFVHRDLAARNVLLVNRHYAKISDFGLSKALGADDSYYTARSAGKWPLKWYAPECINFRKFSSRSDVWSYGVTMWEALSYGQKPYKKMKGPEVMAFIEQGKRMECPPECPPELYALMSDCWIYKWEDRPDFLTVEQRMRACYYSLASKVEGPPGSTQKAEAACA

Jurkat [5] = test: Inhibition of MLR stimulated IL-2 production in Jurkat cells; format: functional, cell-based; settings: Homo sapiens
Jurkat [6] = test: Inhibition of PMA stimulated IL-2 production in Jurkat cells; format: functional, cell-based; settings: Homo sapiens
[7] = target: Proto-oncogene tyrosine-protein kinase Src (Homo sapiens, UniProt P12931)
Description: Inhibition of src at 5 mM ATP

Angiopoietin-1 receptor = Angiopoietin-1 receptor (Homo sapiens, UniProt Q02763)
Description: Inhibition of tie-2 at 5 uM ATP

Jurkat [8] = test: Inhibition of anti-CD3 stimulated IL-2 production by Jurkat cells; format: functional, cell-based; settings: Homo sapiens
[9] = target: T1, Tyrosine-protein kinase Lck; remark: listed apart in the source
Description: Inhibition of p56 Lck tyrosine kinase catalytic domain at 1 mM ATP

[10] = target: T1, Tyrosine-protein kinase Lck; remark: listed apart in the source
Description: Inhibition of p56 Lck tyrosine kinase catalytic domain at 5 uM ATP

[11] = target: T1, Tyrosine-protein kinase Lck; remark: listed apart in the source
Description: Inhibition of p56 Lck tyrosine kinase at 1 mM ATP

T1 sequence (P06239 whole entry): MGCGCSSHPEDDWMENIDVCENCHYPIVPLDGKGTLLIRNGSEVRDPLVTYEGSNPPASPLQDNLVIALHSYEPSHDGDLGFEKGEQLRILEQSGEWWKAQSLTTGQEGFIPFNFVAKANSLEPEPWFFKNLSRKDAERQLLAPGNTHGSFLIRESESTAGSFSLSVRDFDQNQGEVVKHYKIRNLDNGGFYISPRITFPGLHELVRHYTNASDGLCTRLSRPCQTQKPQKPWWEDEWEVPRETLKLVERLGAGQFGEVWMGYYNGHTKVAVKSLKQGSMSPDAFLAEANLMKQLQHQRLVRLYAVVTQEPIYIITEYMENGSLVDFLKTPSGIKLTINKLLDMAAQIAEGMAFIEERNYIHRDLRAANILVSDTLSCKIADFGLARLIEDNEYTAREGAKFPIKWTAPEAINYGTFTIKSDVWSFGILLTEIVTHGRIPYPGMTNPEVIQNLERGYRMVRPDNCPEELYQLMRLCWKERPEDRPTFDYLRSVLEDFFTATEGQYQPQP
Sequence of Proto-oncogene tyrosine-protein kinase Src (P12931 2-536 limits assumed): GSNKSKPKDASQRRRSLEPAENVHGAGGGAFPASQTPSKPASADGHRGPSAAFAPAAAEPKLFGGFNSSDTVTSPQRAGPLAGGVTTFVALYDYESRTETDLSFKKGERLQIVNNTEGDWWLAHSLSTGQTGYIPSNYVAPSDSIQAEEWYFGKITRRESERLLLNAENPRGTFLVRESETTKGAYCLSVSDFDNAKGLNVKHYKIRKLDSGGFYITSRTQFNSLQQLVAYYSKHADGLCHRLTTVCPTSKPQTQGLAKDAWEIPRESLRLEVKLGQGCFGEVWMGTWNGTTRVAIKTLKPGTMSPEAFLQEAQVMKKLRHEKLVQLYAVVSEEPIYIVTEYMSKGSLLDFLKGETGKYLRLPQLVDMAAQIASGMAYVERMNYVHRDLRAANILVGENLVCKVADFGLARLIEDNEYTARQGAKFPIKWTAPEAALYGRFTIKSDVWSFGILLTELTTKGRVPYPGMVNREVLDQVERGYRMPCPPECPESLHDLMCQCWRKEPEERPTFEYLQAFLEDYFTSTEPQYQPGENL
Sequence of Vascular endothelial growth factor receptor 2 (P35968 whole entry): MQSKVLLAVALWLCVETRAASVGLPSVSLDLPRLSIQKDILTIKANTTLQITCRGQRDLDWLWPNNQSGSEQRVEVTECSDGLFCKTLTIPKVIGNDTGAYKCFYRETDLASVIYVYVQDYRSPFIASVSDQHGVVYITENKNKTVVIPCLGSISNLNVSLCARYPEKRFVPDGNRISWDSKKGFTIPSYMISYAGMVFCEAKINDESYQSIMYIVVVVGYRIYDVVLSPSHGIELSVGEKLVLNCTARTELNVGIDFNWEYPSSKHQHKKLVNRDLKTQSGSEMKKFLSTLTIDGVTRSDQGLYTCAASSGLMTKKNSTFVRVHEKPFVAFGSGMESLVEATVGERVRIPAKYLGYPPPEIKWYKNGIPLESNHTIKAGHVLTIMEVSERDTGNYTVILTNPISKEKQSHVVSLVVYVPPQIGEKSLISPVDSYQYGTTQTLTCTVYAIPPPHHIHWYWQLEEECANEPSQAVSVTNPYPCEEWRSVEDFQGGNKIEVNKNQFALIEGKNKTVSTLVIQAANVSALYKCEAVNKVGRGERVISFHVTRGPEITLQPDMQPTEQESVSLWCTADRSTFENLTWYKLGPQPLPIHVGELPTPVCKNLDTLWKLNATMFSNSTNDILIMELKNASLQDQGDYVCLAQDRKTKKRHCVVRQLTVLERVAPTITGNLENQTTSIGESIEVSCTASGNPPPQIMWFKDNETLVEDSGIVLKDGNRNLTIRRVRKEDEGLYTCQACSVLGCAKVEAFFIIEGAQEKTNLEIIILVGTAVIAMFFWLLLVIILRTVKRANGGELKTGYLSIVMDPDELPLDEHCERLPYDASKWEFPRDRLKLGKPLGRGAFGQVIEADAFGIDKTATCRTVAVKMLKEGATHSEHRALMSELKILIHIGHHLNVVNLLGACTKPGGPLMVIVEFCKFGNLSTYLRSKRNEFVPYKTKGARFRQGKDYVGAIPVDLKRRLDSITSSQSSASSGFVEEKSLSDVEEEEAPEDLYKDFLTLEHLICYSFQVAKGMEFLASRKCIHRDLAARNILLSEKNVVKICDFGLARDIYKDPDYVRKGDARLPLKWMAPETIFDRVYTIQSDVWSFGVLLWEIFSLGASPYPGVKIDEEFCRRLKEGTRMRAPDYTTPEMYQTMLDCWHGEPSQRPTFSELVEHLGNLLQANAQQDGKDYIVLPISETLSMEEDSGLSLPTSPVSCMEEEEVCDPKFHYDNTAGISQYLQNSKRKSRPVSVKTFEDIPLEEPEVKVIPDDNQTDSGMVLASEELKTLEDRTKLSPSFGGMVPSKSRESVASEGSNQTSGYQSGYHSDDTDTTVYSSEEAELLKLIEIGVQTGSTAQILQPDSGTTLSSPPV
Sequence of Angiopoietin-1 receptor (Q02763 whole entry): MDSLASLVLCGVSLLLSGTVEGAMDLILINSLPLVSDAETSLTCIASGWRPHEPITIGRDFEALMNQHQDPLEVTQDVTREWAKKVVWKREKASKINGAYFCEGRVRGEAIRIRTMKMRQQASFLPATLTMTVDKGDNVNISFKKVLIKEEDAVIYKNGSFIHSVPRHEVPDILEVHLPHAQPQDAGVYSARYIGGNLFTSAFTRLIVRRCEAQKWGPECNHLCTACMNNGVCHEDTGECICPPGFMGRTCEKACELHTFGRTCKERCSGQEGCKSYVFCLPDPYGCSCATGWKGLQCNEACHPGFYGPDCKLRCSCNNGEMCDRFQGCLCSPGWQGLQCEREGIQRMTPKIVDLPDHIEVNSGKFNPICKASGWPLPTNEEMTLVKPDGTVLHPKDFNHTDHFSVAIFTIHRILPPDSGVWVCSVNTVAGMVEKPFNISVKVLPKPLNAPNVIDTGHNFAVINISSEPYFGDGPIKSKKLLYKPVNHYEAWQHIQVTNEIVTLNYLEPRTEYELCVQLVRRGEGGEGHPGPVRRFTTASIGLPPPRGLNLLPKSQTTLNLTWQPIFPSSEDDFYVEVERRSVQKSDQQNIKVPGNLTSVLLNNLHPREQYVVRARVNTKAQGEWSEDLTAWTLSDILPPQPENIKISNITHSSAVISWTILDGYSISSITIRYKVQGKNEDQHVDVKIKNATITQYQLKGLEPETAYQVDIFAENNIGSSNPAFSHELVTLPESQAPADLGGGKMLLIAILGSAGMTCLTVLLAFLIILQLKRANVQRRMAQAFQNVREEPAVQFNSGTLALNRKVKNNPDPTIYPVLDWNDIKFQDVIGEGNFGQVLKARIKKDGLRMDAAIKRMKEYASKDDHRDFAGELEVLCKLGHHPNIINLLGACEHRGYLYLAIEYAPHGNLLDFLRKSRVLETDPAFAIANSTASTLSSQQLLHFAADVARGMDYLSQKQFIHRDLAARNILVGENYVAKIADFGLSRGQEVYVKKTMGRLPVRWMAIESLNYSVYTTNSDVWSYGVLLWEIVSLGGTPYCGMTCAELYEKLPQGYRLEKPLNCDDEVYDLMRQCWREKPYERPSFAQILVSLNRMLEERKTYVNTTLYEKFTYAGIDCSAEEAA

SMILES: c1ccc(Oc2ccc(Nc3ncnc4ccccc34)cc2)cc1
- IC50 [1]: < 8 nM

SMILES: Nc1ncnc2c1c(-c1ccccc1Oc1ccccc1)cn2C1CCCC1
- IC50 [2]: > 50000 nM
- IC50 [1]: 390 nM

SMILES: CC(C)(C)n1cc(-c2ccc(Cl)cc2)c2c(N)ncnc21
- IC50 [1]: 220 nM

Continued, values first:

- IC50 [3]: > 50000 nM
- IC50 (Protein kinase C (PKC)): > 33000 nM
- IC50 [4]: > 50000 nM
- IC50 (Jurkat [5]): 28 nM
- IC50 (Jurkat [6]): 3000 nM
- IC50 [2]: 85 nM
- IC50 [7]: 88 nM
- IC50 (Angiopoietin-1 receptor): 58.3 nM
SMILES: Nc1ncnc2c1c(-c1ccc(Oc3ccccc3)cc1)cn2C1CCC(O)C1 (stereo unspecified)

- IC50 [3]: > 50000 nM
- IC50 (Protein kinase C (PKC)): > 33000 nM
- IC50 [4]: > 50000 nM
- IC50 (Jurkat [6]): 1500 nM
- IC50 (Jurkat [8]): 40 nM
- IC50 [2]: 1570 nM
- IC50 [9]: 1070 nM
- IC50 [10]: 2 nM
- IC50 [11]: 16 nM
- IC50 [1]: < 1 nM
- IC50 [7]: 70 nM
SMILES: Nc1ncnc2c1c(-c1ccc(Oc3ccccc3)cc1)cn2C1CCCC1

- IC50 [7]: > 1000 nM
SMILES: Nc1ncnc2c1c(-c1cccc(Oc3ccccc3)c1)cn2C1CCCC1

- IC50 (Jurkat [5]): 400 nM
- IC50 (Jurkat [8]): 1200 nM
SMILES: Cc1ccc(-c2nn(C(C)(C)C)c3ncnc(N)c23)cc1
